Tests used:
BTK = target: T1, BTK (Homo sapiens, UniProt Q06187); test: BTK kinase profiling, HotSpot radiometric assay (Reaction Biology); assay type: biochemical; details: ATP 10 μM; for inhibition at 0.01 µM: compound 0.01 μM, read-out: BTK @ 0.01 μM (% Inh); for inhibition at 0.1 µM: compound 0.1 μM, read-out: BTK @ 0.1 μM (% Inh); for inhibition at 1 µM: compound 1 μM, read-out: BTK @ 1 μM (% Inh)
T1 construct: purchased Reaction Biology Corporation
Method: (§1) Compounds of the invention were profiled in a 10 dose IC50 panel against BTK and PI3Kδ, both provided by Reaction Biology Corporation.
BTK assay: In vitro profiling protein kinases was performed using the “HotSpot” assay platform. Briefly, specific kinase/substrate pairs along with required cofactors were prepared in reaction buffer. Compounds were prepared as 10 mM stock solutions in DMSO. Compounds were delivered into the reaction, followed 15-20 minutes later by addition of a mixture of ATP (Sigma, St. Louis Mo.) and ^33P ATP (Perkin Elmer, Waltham Mass.) to a final concentration of 10 μM. Reactions were carried out at RT for 120 min, followed by spotting of the reactions onto P81 ion exchange filter paper (Whatman Inc., Piscataway, N.J.). Unbound phosphate was removed by extensive washing of filters in 0.75% Phosphoric acid. […] ICso values and curve fits were obtained using Prism (GraphPad Software). Buffer Conditions: 20 mM Hepes (pH 7.5), 10 mM MgCl2, 1 mM EGTA, 0.02% Brij35, 0.02 mg/mL BSA, 0.1 mM Na3VO4, 2 mM DTT, 1% DMSO.

[1] = test system: CD69+B220+ cells (mouse spleen cells); test: B cell activation assay (IgD-stimulated CD69 on B220+ spleen cells, FACS); assay type: cell-based; details: 100 nM test compound, 30 min, then IgD 3 μg/mL 4 h, read-out: CD69 @ 100 nM (% Inh)
Method: 1 Female mouse approximately 2 months old was euthanized with CO2 and the spleen removed. The tissue was homogenized with a polished glass microscope slide. The cells were collected in 5 mL complete medium (RPMI+10% FBS+pen/strep), placed in a 15 mL falcon tube and centrifuged at 500×g for 5 min. The supernatant was discarded and the pellet was resuspended in 3 mL of ACK lysis buffer (NH4Cl 0.17M, KHCO3 10 mM, EDTA-Na2 0.1 mM, pH 7.2), incubated at 37° C. for 5 min. 2 mL complete medium was added and the mixture centrifuged at 500×g for 5 min. The supernatant was discarded and the pellet resuspended in 1 mL complete medium. The mixture was passed through a […] cell strainer and collect in 50 mL falcon tube. Enough medium was added to have a total of 10 mL. The cells were counted and seeded in 24 or 48-well plate in 1 mL complete medium at 10^6 cells/mL. The plate was placed in a 37° C. incubator for 15 min. The cells were treated for 30 min at 37° C. with 100 nM test compound dissolved in 100% DMSO. 3 μL IgD (Accurate chemical and scientific corp.) was added at a final concentration of 3 μg/mL and the mixture incubated at 37° C. for 4 h. The cells were collected in 1.5 mL eppendorf tubes, centrifuged at 500×g for 5 min and then resuspended in 100 μL of PBS+2% FBS. The following antibodies were added: α-B220 PE (pharmingen #553090), α-CD69 APC (pharmingen #60689), live/dead fixable aqua dead cell stain kit (life technologies # L34957) all at 1:300, and the mixture incubated for 15 min at 4° C. in the dark. To this was added 900 μL of PBS+2% FBS and the mixture centrifuged at 500×g for 5 min. The supernatant was removed and the pellet resuspended in 300 μL of PBS+2% FBS and mixed well. The mixture was transferred to a cytometer tube. The samples were run in the FACS Canto II cytometer and quantified by the number of CD69+B220+ cells as a percentage of the total number of B220+ alive cells.

PI3Kδ [2] = target: T2, PI3Kδ (Homo sapiens, UniProt O00329); test: PI3Kδ kinase profiling, HTRF PIP3 displacement assay (Reaction Biology); assay type: biochemical; details: ATP 10 μM; for inhibition at 0.01 µM: compound 0.01 μM, read-out: PI3Kδ @ 0.01 μM (% Inh); for inhibition at 0.1 µM: compound 0.1 μM, read-out: PI3Kδ @ 0.1 μM (% Inh)
T2 construct: purchased Reaction Biology Corporation

PI3Kδ [3] = target: T2, PI3Kδ; test: as above; assay type: biochemical; details: compound 1 μM; ATP 10 μM; read-out: PI3Kδ @ 1 μM (% Inh)
Source text: as §1
PI3Kδ assay: The PIP3 product is detected by displacement of biotin-PIP3 from an energy transfer complex consisting of Europium labeled anti-GST monoclonal antibody, a GST-tagged pleckstrin homology (PH) domain, biotinylated PIP3 and Streptavidin-Allophycocyanin (APC). Excitation of Europium in the complex results in an energy transfer to the APC and a fluorescent emission at 665 nm. The PIP3 product formed by PI3-Kinase (h) activity displaces biotin-PIP3 from the complex resulting in a loss of energy transfer and thus a decrease in signal. This is a 3-step reaction: First, the kinase reaction with PIP2 substrate is carried out in the presence of ATP (10 μM), and the reaction is quenched with stop Solution, and then finally detect by adding Detection Mixture followed by incubation (10 min). Reaction procedure: 1) Prepare substrate in freshly prepared Reaction Buffer. 2) Deliver kinase into the substrate solution and gently mix. 3) Deliver compounds in 100% DMSO (1 μM) into the kinase reaction mixture by Acoustic technology (Echo550; nanoliter range), incubate for 10 min at RT. 4) Deliver ATP into the reaction mixture to initiate the reaction. 5) Incubate for 30 min at 30° C. 6) Quench the reaction with Stop Solution. 7) Add Detection Mixture, and incubate for overnight. 8) Measure HTRF: Ex=320 nm, ratio of Em=615 nm and Em=665 nm. The emission ratio is converted into μM PIP3 production based on PIP3 standard curves. The nonlinear regression to obtain the standard curve and IC50 values are performed using Graphpad Prism software. Assay Buffer: HEPES 50 mM (pH7.0), NaN3 0.02%, BSA 0.01%, Orthovanadate 0.1 mM, 1% DMSO. Detection buffer: HEPES 10 mM (pH7.0), BSA 0.02%, KF 0.16 M, EDTA 4 mM. Substrate: 10 μM PIP2 substrate (PI(4,5)P2).

[4] = test system: CD69+B220+ cells (mouse spleen cells); test: B cell activation assay (IgD-stimulated CD69 on B220+ spleen cells, FACS); assay type: cell-based; details: IgD 3 μg/mL 4 h

T2 sequence (O00329 whole entry): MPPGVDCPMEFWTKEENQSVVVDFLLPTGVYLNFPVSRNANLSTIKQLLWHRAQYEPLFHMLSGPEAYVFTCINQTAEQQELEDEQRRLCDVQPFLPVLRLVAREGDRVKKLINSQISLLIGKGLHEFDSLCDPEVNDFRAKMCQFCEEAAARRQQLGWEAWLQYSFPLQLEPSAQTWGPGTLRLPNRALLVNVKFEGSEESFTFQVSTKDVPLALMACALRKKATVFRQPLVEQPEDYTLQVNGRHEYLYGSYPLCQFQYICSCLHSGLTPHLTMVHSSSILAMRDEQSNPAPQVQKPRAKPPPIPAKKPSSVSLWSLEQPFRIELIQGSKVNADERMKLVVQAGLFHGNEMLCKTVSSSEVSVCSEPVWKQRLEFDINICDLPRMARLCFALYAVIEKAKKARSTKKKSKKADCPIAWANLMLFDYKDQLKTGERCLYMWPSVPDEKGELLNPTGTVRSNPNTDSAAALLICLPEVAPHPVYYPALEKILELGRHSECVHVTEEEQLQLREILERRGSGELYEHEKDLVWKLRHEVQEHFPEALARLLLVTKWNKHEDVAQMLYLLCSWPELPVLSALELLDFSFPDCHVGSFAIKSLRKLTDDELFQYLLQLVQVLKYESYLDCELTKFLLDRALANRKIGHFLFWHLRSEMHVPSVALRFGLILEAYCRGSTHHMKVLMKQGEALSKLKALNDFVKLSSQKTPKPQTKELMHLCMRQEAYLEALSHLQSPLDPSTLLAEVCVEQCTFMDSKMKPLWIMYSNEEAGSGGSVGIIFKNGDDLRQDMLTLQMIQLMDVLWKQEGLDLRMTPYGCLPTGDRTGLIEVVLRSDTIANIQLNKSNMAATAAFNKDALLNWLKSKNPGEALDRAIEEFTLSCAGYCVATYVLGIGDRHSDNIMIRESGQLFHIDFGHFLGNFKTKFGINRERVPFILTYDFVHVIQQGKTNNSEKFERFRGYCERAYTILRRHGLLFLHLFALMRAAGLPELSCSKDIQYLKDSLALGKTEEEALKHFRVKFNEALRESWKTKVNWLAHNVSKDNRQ
T2 sequence (P27986 whole entry partner): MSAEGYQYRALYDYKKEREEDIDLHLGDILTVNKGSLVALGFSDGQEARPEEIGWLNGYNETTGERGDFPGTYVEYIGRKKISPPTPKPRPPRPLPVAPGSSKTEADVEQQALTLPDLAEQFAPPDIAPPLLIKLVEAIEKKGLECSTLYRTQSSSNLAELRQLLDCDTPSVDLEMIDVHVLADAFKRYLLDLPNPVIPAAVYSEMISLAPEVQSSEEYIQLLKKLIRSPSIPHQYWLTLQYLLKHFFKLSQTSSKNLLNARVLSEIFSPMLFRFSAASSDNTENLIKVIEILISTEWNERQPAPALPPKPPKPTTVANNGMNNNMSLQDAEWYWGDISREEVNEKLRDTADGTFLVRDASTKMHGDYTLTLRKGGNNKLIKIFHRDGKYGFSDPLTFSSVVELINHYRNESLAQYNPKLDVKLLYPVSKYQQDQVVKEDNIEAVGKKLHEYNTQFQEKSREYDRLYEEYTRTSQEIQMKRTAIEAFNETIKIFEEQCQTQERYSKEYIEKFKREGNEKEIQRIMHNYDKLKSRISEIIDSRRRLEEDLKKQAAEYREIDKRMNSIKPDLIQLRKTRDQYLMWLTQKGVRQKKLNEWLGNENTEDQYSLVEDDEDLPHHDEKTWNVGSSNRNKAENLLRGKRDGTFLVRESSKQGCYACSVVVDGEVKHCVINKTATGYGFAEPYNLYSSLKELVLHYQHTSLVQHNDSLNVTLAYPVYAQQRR
T1 sequence (Q06187 whole entry): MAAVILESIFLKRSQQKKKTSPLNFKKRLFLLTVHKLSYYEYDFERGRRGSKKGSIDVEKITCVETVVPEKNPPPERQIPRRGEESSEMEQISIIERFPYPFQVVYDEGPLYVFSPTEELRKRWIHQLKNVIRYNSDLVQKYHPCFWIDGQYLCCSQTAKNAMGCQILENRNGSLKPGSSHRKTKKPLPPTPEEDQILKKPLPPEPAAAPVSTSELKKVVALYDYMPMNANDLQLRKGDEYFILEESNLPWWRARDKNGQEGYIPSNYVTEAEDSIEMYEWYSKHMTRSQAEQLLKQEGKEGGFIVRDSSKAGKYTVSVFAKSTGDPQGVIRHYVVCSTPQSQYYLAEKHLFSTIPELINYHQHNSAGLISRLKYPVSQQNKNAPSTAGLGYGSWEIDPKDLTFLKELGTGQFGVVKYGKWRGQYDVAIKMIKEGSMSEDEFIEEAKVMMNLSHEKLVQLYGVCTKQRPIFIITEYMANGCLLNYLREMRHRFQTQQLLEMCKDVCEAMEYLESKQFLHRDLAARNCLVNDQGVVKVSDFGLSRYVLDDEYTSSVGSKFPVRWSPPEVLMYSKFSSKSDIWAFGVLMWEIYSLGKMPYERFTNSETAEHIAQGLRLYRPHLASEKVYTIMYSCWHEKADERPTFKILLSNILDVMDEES

Row | inhibition at 0.01 µM (BTK) | inhibition at 0.1 µM (BTK) | inhibition at 0.01 µM (PI3Kδ [2]) | inhibition at 0.1 µM (PI3Kδ [2]) | inhibition at 1 µM (BTK) | inhibition at 1 µM (PI3Kδ [3]) | IC50 [4] | SMILES | inhibition at 0.1 µM [1]
1 | 90.3% | 95.4% | 17.1% | 40.6% | – | – | – | C=CC(=O)N(CCn1nc(-c2ccc(Cl)c(O)c2)c2c(N)ncnc21)Cc1ccco1 [Compound 20, N-{2-[4-amino-3-(4-chloro-3-hydroxyphenyl)-1H-pyrazolo[3,4-d]pyrimidin-1-yl]ethyl}-N-(furan-2-ylmethyl)prop-2-enamide] | -82 ± 14.7%
2 | 86.5% | 96.1% | 24.8% | 55% | – | – | – | C=CC(=O)N(CCn1nc(-c2ccc(Cl)c(O)c2)c2c(N)ncnc21)Cc1ccc(F)cc1 [Compound 14, N-{2-[4-amino-3-(4-chloro-3-hydroxyphenyl)-1H-pyrazolo[3,4-d]pyrimidin-1-yl]ethyl}-N-[(4-fluorophenyl)methyl]prop-2-enamide] | -135 ± 55.8%
3 | 62.5% | 93.1% | 20.8% | 23.4% | – | – | – | C=CC(=O)N(CCn1nc(-c2cc(F)c3c(c2)NCCO3)c2c(N)ncnc21)Cc1ccc(Cl)cc1 [Compound 18, N-{2-[4-amino-3-(8-fluoro-3,4-dihydro-2H-1,4-benzoxazin-6-yl)-1H-pyrazolo [3,4-d]pyrimidin-1-yl]ethyl}-N-[(4-chlorophenyl)methyl]prop-2-enamide] | -7.39 ± 6.26%
4 | 95.6% | 98.6% | 14% | 43% | – | – | – | C=CC(=O)N(CCn1cc(-c2ccc(Cl)c(O)c2)c2c(N)ncnc21)Cc1ccc(F)cc1 [Compound 13, N-{2-[4-amino-5-(4-chloro-3-hydroxyphenyl)-7H-pyrrolo[2,3-d]pyrimidin-7-yl]ethyl}-N-[(4-fluorophenyl)methyl]prop-2-enamide] | -165 ± 63%
5 | 90.3% | 96.2% | 13.6% | 41.1% | – | – | – | C=CC(=O)N(CCn1nc(-c2ccc(Cl)c(O)c2)c2c(N)ncnc21)Cc1ccc(OC)cc1 [Compound 17, N-{2-[4-amino-3-(4-chloro-3-hydroxyphenyl)-1H-pyrazolo[3,4-d]pyrimidin-1-yl]ethyl}-N-[(4-methoxyphenyl)methyl]prop-2-enamide] | -61.1 ± 47.1%
6 | – | 47.3% | – | 47% | 91.6% | 85.2% | – | C=CC(=O)N(CCn1nc(-c2cc(F)cc(OC(C)=O)c2)c2c(N)ncnc21)Cc1ccccc1 [Compound 9, 3-{4-amino-1-[2-(N-benzylprop-2-enamido)ethyl]-1H-pyrazolo [3,4-d]pyrimidin-3-yl}-5-fluorophenyl acetate] | –
7 | 48.5% | 92.1% | 7.57% | 31.1% | – | – | – | C=CC(=O)N(CCn1nc(-c2ccc(Cl)c(O)c2)c2c(N)ncnc21)Cc1ccc(Cl)cc1 [Compound 15, N-{2-[4-amino-3-(4-chloro-3-hydroxyphenyl)-1H-pyrazolo[3,4-d]pyrimidin-1-yl]ethyl}-N-[(4-chlorophenyl)methyl]prop-2-enamide] | -103 ± 45.4%

Second part, the molecule before the results:

Row | SMILES | inhibition at 0.01 µM (BTK) | inhibition at 0.1 µM (BTK) | inhibition at 0.01 µM (PI3Kδ [2]) | inhibition at 0.1 µM (PI3Kδ [2]) | inhibition at 1 µM (BTK) | inhibition at 1 µM (PI3Kδ [3]) | IC50 [4] | inhibition at 0.1 µM [1]
8 | Nc1ncnc2c1c(-c1cc(O)c(F)c(F)c1)nn2CCNCc1cccnc1 [Compound 23, 5-(4-amino-1-{2-[(pyridin-3-ylmethyl)amino]ethyl}-1H-pyrazolo[3,4-d]pyrimidin-3-yl)-2,3-difluorophenol] | 12.7% | 60.5% | 3.31% | 66.7% | – | – | – | 39.7 ± 10.2%
9 | Nc1ncnc2c1c(-c1cc(O)cc(F)c1)nn2CCNCc1ccccc1 [Compound 4, 3-{4-amino-1-[2-(benzylamino)ethyl]-1H-pyrazolo[3,4-d]pyrimidin-3-yl}-5-fluorophenol] | -1.37% | 14.8% | 1.78% | 68% | – | – | – | 39.1 ± 7.85%
10 | Nc1ncnc2c1c(-c1cc(O)c(F)c(F)c1)nn2CCNc1ncccn1 [Compound 21, 5-(4-amino-1-{2-[(pyrimidin-2-yl)amino]ethyl}-1H-pyrazolo[3,4-d]pyrimidin-3-yl)-2,3-difluorophenol] | 9.64% | 37.1% | 8.59% | 56.6% | – | – | – | 18.2 ± 2.92%
11 | CCC(=O)N(CCn1nc(-c2cc(O)cc(F)c2)c2c(N)ncnc21)Cc1ccccc1 [Compound 7, N-{2-[4-amino-3-(3-fluoro-5-hydroxyphenyl)-1H-pyrazolo[3,4-d]pyrimidin-1-yl]ethyl}-N-benzylpropanamide] | – | 19.9% | – | 83.5% | 20.6% | 96.3% | 0.0819 ± 0.0065 µM | 66.5 ± 5.85%
12 | Nc1ncnc2c1c(-c1cc(O)cc(F)c1)nn2CCN(Cc1ccccc1)C(=O)C1CC1 [Compound 8, N-{2-[4-amino-3-(3-fluoro-5-hydroxyphenyl)-1H-pyrazolo[3,4-d]pyrimidin-1-yl]ethyl}-N-benzylcyclopropanecarboxamide] | – | 9.54% | – | 70% | 12.2% | 86.1% | – | –
13 | C=CC(=O)N(CCn1nc(-c2ccc(Oc3ccccc3)cc2)c2c(N)ncnc21)Cc1ccccc1 [Compound 24, N-{2-[4-amino-3-(4-phenoxyphenyl)-1H-pyrazolo[3,4-d]pyrimidin-1-yl]ethyl}-N-benzylprop-2-enamide] | 96.5% | 96.7% | -32.3% | 0.74% | – | – | – | 55.8 ± 9.1%
